Test results from PubChem BioAssay (NCI).
“And” between values parts separate entries of the source, which are not always exact repeats. Equal values may be shown once.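 Here, GI50 denotes the concentration required for 50% inhibition of growth. At the TGI there is no net growth.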

Key:
Assay in all cases: growth of human tumour cells (NCI), 384-well format
[1] = tested on: HCT-116 colon
[2] = tested on: NCI-H23 lung
[3] = tested on: RPMI-8226 leukemia
[4] = tested on: SK-OV-3 ovarian
[5] = tested on: HOP-92 NSCLC
[6] = tested on: MDA-MB-435 melanoma
[7] = tested on: NCI-H322M lung
[8] = tested on: MOLT-4 leukemia
[9] = tested on: IGROV1 ovarian
[10] = tested on: HT29 colon
[11] = tested on: CAKI-1 renal
[12] = tested on: SR leukemia
[13] = tested on: 786-0 renal
[14] = tested on: OVCAR-5 ovarian
[15] = tested on: LOX IMVI melanoma
[16] = tested on: NCI/ADR-RES ovarian
[17] = tested on: NCI-H226 lung
[18] = tested on: UACC-62 melanoma
[19] = tested on: UO-31 renal
[20] = tested on: HL-60(TB) leukemia
[21] = tested on: SF-268 CNS
[22] = tested on: T-47D breast
[23] = tested on: SF-295 CNS
[24] = tested on: HCC-2998 colon
[25] = tested on: A498 renal
[26] = tested on: COLO 205 colon
[27] = tested on: SNB-75 CNS
[28] = tested on: EKVX NSCLC
[29] = tested on: RXF 393 renal
[30] = tested on: OVCAR-8 ovarian
[31] = tested on: DU-145 prostate
[32] = tested on: M14 melanoma
[33] = tested on: HOP-62 NSCLC
[34] = tested on: NCI-H522 lung
[35] = tested on: MDA-MB-231 breast
[36] = tested on: BT-549 breast
[37] = tested on: SW-620 colon
[38] = tested on: HS 578T breast
[39] = tested on: KM12 colon
[40] = tested on: SK-MEL-5 melanoma
[41] = tested on: A549 NSCLC
[42] = tested on: HCT-15 colon
[43] = tested on: SN12C renal
[44] = tested on: ACHN renal
[45] = tested on: CCRF-CEM leukemia
[46] = tested on: OVCAR-3 ovarian
[47] = tested on: MDA-MB-468 breast
[48] = tested on: SNB-19 CNS
[49] = tested on: SK-MEL-28 melanoma
[50] = tested on: MALME-3M melanoma
[51] = tested on: U251 glioblastoma
[52] = tested on: K-562 leukemia
[53] = tested on: UACC-257 melanoma
[54] = tested on: OVCAR-4 ovarian
[55] = tested on: PC-3 prostate
[56] = tested on: TK-10 renal
[57] = tested on: MCF7 breast
[58] = tested on: NCI-H460 NSCLC
[59] = tested on: SF-539 CNS
[60] = tested on: SK-MEL-2 melanoma

For `COc1cccc2c1C(=O)c1c(O)c3c(c(O)c1C2=O)C[C@@](O)(C(=O)CO)C[C@@H]3OC1CC(N)C(O)C(C)O1` (stereo partly specified), the GI50 [1] was 29.4 nM and 16.5 nM, the TGI [1] was 972 nM and 151 nM and the GI50 [2] was 43 nM and 27.4 nM and 28.5 nM. For the same compound, the TGI [2] was 126 nM and 89 nM and 133 nM, the GI50 [3] was 7.64 nM and 11.2 nM and < 10 nM and the TGI [3] was 40.3 nM and 24.6 nM and 21.9 nM. For the same compound, the GI50 [4] was 68.1 nM and 75.6 nM and 80.2 nM, the TGI [4] was 334 nM and 377 nM and 409 nM and the GI50 [5] was 24.6 nM and 35.9 nM and 66.9 nM. For the same compound, the GI50 [6] was 219 nM and 232 nM and 150 nM, the TGI [6] was 632 nM and 669 nM and 599 nM and the GI50 [7] was 365 nM and 270 nM and 326 nM. For the same compound, the TGI [7] was 985 nM and 914 nM and 1830 nM, the GI50 [8] was 4.08 nM and < 10 nM and the TGI [8] was 7.81 nM. For the same compound, the GI50 [9] was 72.5 nM and 46.7 nM, the TGI [9] was 1220 nM and 231 nM and the GI50 [10] was 114 nM and 119 nM and 106 nM. For the same compound, the TGI [10] was 490 nM and 303 nM and 263 nM, the GI50 [11] was 41.9 nM and 25 nM and the TGI [11] was 504 nM and 160 nM. For the same compound, the GI50 [12] was 4 nM, the TGI [12] was 7.78 nM and the GI50 [13] was 42.9 nM and 25.3 nM and 46.5 nM. The TGI [13] was 227 nM and 226 nM and 1070 nM, the GI50 [14] was 194 nM and 260 nM and 159 nM and the TGI [14] was 1040 nM and 2130 nM and 720 nM. For the same compound, the GI50 [15] was 32 nM and 23.9 nM and 21.9 nM, the TGI [15] was 235 nM and 157 nM and 163 nM and the GI50 [16] was 5900 nM and 7690 nM and 22600 nM. For the same compound, the TGI [16] was 24300 nM and 34300 nM and > 100000 nM, the GI50 [17] was 34.4 nM and 36.8 nM and 75.2 nM and the TGI [17] was 131 nM and 156 nM and 299 nM. The GI50 [18] was 25.3 nM and 28.6 nM and 14.8 nM, the TGI [18] was 133 nM and 155 nM and 142 nM and the GI50 [19] was 360 nM and 508 nM and 907 nM. The TGI [19] was 1630 nM and 1530 nM and 2280 nM, the GI50 [20] was 5.95 nM and < 10 nM and the TGI [20] was 14.5 nM and 11.8 nM. For the same compound, the GI50 [21] was 35.2 nM and 32.6 nM and 36.3 nM, the TGI [21] was 207 nM and 138 nM and 213 nM and the GI50 [22] was 32.9 nM and 32 nM and 40.8 nM. For the same compound, the GI50 [23] was 49.2 nM and 32.3 nM and 52.2 nM, the TGI [23] was 169 nM and 135 nM and 447 nM and the GI50 [24] was 35.6 nM and 17.6 nM. The TGI [24] was 176 nM and 92.6 nM, the GI50 [25] was 38.2 nM and 30.6 nM and 50.9 nM and the TGI [25] was 472 nM and 184 nM and 244 nM. For the same compound, the GI50 [26] was 17.8 nM, the TGI [26] was 328 nM and 179 nM and the GI50 [27] was 40.3 nM and 31.7 nM and 43.3 nM. The TGI [27] was 126 nM and 100 nM and 174 nM, the GI50 [28] was 165 nM and 248 nM and 419 nM and the TGI [28] was 704 nM and 1280 nM and 4790 nM. The GI50 [29] was 37.2 nM and 41 nM and 117 nM, the TGI [29] was 211 nM and 114 nM and 274 nM and the GI50 [30] was 76.4 nM and 55.9 nM and 58 nM. The TGI [30] was 466 nM and 236 nM and 223 nM, the GI50 [31] was 33.7 nM and 18.5 nM and the TGI [31] was 148 nM and 214 nM. For the same compound, the GI50 [32] was 51.6 nM and 44.6 nM and 37.1 nM, the TGI [32] was 200 nM and 182 nM and 190 nM and the GI50 [33] was 40.6 nM and 23.8 nM and 34.4 nM. The TGI [33] was 145 nM and 91.6 nM and 125 nM, the GI50 [34] was 25.3 nM and 18 nM and 11.1 nM and the TGI [34] was 75.6 nM and 69.7 nM and 117 nM. The GI50 [35] was 81.5 nM and 43.4 nM and 36.9 nM, the TGI [35] was 523 nM and 275 nM and 318 nM and the GI50 [36] was 23.3 nM and 18.2 nM and 13.6 nM. For the same compound, the TGI [36] was 128 nM and 70.2 nM and 130 nM, the GI50 [37] was 23.3 nM and 44.8 nM and 19.6 nM and the TGI [37] was 463 nM and 741 nM and 501 nM. The GI50 [38] was 16.7 nM and 26.9 nM and 109 nM, the TGI [38] was 133 nM and 141 nM and 322 nM and the GI50 [39] was 39.6 nM and 41 nM. For the same compound, the TGI [39] was 423 nM and 212 nM, the GI50 [40] was 41.1 nM and 13.1 nM and the TGI [40] was 166 nM and 58.6 nM. The GI50 [41] was 58.7 nM and 26.3 nM and 41.3 nM, the TGI [41] was 473 nM and 188 nM and 222 nM and the GI50 [42] was 202 nM and 111 nM and 89 nM. For the same compound, the TGI [42] was 2130 nM and 1360 nM and 1490 nM, the GI50 [43] was 35.8 nM and 31.4 nM and 33.5 nM and the TGI [43] was 162 nM and 166 nM and 181 nM. The GI50 [44] was 69.2 nM and 64 nM and 171 nM, the TGI [44] was 407 nM and 287 nM and 591 nM and the GI50 [45] was 8.6 nM and < 11.2 nM and < 10 nM. The TGI [45] was 27.4 nM and 19.4 nM and 17.7 nM, the GI50 [46] was 73.4 nM and 116 nM and the TGI [46] was 539 nM and 821 nM. The GI50 [47] was 26.2 nM and 14.8 nM and 12.7 nM, the TGI [47] was 70 nM and 36.6 nM and 28.3 nM and the GI50 [48] was 36.2 nM and 32.2 nM and 34.3 nM. The GI50 [49] was 84.4 nM and 72.7 nM and 101 nM, the TGI [49] was 336 nM and 208 nM and 237 nM and the GI50 [50] was 38.1 nM and 45.6 nM and 54.7 nM. The TGI [50] was 153 nM and 166 nM and 191 nM, the GI50 [51] was 20 nM and 18.4 nM and 14.3 nM and the GI50 [52] was 39.7 nM and 43.9 nM and 45.6 nM. The TGI [52] was 340 nM and 245 nM and 229 nM, the GI50 [53] was 109 nM and 118 nM and 125 nM and the TGI [53] was 389 nM and 255 nM and 261 nM. For the same compound, the GI50 [54] was 310 nM and 246 nM and 263 nM, the TGI [54] was 983 nM and 954 nM and 1910 nM and the GI50 [55] was 189 nM and 154 nM and 139 nM. For the same compound, the TGI [55] was 765 nM and 626 nM and 467 nM, the GI50 [56] was 78 nM and 88.7 nM and the TGI [56] was 461 nM and 328 nM. For the same compound, the GI50 [57] was 34 nM and 22.8 nM and 19.1 nM, the TGI [57] was 3210 nM and 1370 nM and 12200 nM and the GI50 [58] was 9.14 nM. The TGI [58] was 86.1 nM and 98.9 nM, the GI50 [59] was 39.9 nM and 34.8 nM and 35.8 nM and the TGI [59] was 264 nM and 168 nM and 173 nM. The GI50 [60] was 56.5 nM and 86 nM and 68.1 nM and the TGI [60] was 128 nM and 179 nM and 130 nM.
